The source of these data is US20070099877A1, “N-aryl-thienopyrimidin-4-amines and analogs as activators of caspases and inducers of apoptosis and the use thereof” (Cytovia, Inc., priority 2005, published 2007).

One may read the EC50 as the concentration needed to bring the measured effect to its halfway point.

Counter-ions that a name gives are not always drawn. Like-named read-outs stand apart in the source and are kept apart here.

Holding throughout (type): cell-based
Assay [1] relates to human breast cancer cell line T-47D. The assay can be described thus: Caspase cascade activation (DEVD-R110 fluorogenic substrate) in T-47D cells. The conditions noted are these: Homo sapiens, T47D. The method, then:
(§1) Human breast cancer cell line T-47D, human lung cancer cell line H1299, human hepatocellular carcinoma cell line SNU398, human colon carcinoma cell line HCT116 were grown according to media component mixtures designated by American Type Culture Collection+10% FCS (Invitrogen Corporation), in a 5% CO2-95% humidity incubator at 37° C. T-47D and H1299 cells were maintained at a cell density between 50 and 80% confluency at a cell density of 0.1 to 0.6×10^6 cells/mL. Cells were harvested at 600×g and resuspended at 0.65×10^6 cells/mL into appropriate media+10% FCS. An aliquot of 22.5 μL of cells was added to a well of a 384-well microtiter plate containing 2.5 μL of a 10% DMSO in RPMI-1640 media solution containing 0.16 to 100 μM of N-(2,5-dimethoxyphenyl)-2-methylthieno[3,2-d]pyrimidin-4-amine or other test compound (0.016 to 10 μM final). An aliquot of 22.5 μL of cells was added to a well of a 384-well microtiter plate containing 2.5 μL of a 10% DMSO in RPMI-1640 media solution without test compound as the control sample. The samples were mixed by agitation and then incubated at 37° C. for 24 h or 48 h in a 5% CO2-95% humidity incubator. After incubation, the samples were removed from the incubator and 25 μL of a solution containing 14 μM of N-(Ac-DEVD)-N′-ethoxycarbonyl-R110 (SEQ ID NO.:1) fluorogenic substrate (Cytovia, Inc.; WO99/18856), 20% sucrose (Sigma), 20 mM DTT (Sigma), 200 mM NaCl (Sigma), 40 mM Na PIPES buffer pH 7.2 (Sigma), and 500 μg/mL lysolecithin (Calbiochem) was added. The samples were mixed by agitation and incubated at room temperature. Using a fluorescent plate reader (Model SPECTRAfluor Plus, Tecan), an initial reading (T=0) was made approximately 1-2 min after addition of the substrate solution, employing excitation at 485 nm and emission at 530 nm, to determine the background fluorescence of the control sample. After the 3 h incubation, the samples were read for fluorescence as above (T=3 h).
(§2) The Relative Fluorescence Unit values (RFU) were used to calculate the sample readings as follows: RFU(T=3h)−Control RFU(T=O)=Net RFU(T=3h)
(§3) The activity of caspase cascade activation was determined by the ratio of the net RFU value for N-(2,5-dimethoxyphenyl)-2-methylthieno[3,2-d]pyrimidin-4-amine or other test compound to that of control samples. The EC50 (nM) was determined by a sigmoidal dose-response calculation (Prism 3.0, GraphPad Software Inc.).

In assay [2] the test system is human hepatocellular carcinoma cell line SNU398. The assay can be described thus: Caspase cascade activation in SNU398 cells. The conditions noted are these: Homo sapiens, SNU-398, 48 h, read-out: Caspase activation Potency EC50 SNU398 (48 h). The method, then:
as §1, §2, §3

Assay [3] has as its system human colon carcinoma cell line HCT116. The assay can be described thus: Caspase cascade activation in HCT116 cells. The conditions noted are these: Homo sapiens, HCT-116, 48 h, read-out: Caspase activation Potency EC50 HCT116 (48 h). The method, then:
as §1, §2, §3

The subject of assay [4] is human lung cancer cell line H1299. Description: Caspase cascade activation in H1299 cells. The conditions noted are these: NCI-H1299, 24 h, read-out: Caspase activation Potency EC50 H1299 (24 h). The method, then:
as §1, §2, §3

Where [5] appears, read: 48 h, T-47D cells, 48 h, read-out: Caspase activation Potency EC50 T-47D (48 h).
Setting [6] is: 24 h, T47D cells, 24 h, read-out: Caspase activation Potency EC50 T47D (24 h).

For the compound `Cc1cc(C)cc(Nc2ncnc3ccsc23)c1` [Example 57, N-(3,5-Dimethylphenyl)thieno[3,2-d]pyrimidin-4-amine], the EC50 in assay [1] (setting [5]), in assay [2] and in assay [3] was greater than 10000 nM throughout.
Regarding `COc1cccc(Nc2ncnc3ccsc23)c1` [Example 11, N-(3-Methoxyphenyl)thieno[3,2-d]pyrimidin-4-amine hydrochloride], the EC50 in assay [1] (setting [6]) is 555 nM; in assay [1] (setting [5]), 1190 nM; in assay [4], 5370 nM; in assay [2] it was 5730 nM; in assay [3] it was greater than 10000 nM.
For `COc1ccc(OC)c(Nc2ncnc3c(C)csc23)c1` [Example 22, N-(2,5-Dimethoxyphenyl)-7-methylthieno[3,2-d]pyrimidin-4-amine], the EC50 is 114 nM in assay [1] (setting [6]); 233 nM in assay [1] (setting [5]); 5020 nM in assay [4]; greater than 10000 nM in assay [2]; 341 nM in assay [3].
Turning to `COc1c(Br)c(N)c(Br)c(Nc2ncnc3ccsc23)c1Br` [Example 73, N-(3-Amino-2,4,6-tribromo-5-methoxyphenyl)thieno[3,2-d]pyrimidin-4-amine], the results for the concentration giving a half-maximal response (EC50) in assay [1] (setting [5]), in assay [2] and in assay [3] were 486 nM, 605 nM and 1670 nM, respectively.
As to `COc1ccc(OC)c(Nc2nc(C)nc3sc(C)c(C)c23)c1` [Example 29, N-(2,5-Dimethoxy-phenyl)-2,5,6-trimethylthieno[2,3-d]pyrimidin-4-amine hydrochloride], the EC50 in assay [1] (setting [6]), in assay [1] (setting [5]), in assay [4], in assay [2] and in assay [3] was greater than 10000 nM throughout.
In the case of `COc1cc(Nc2nc(C)nc3cc(Br)sc23)cc(OC)c1` [Example 52, N-(3,5-Dimethoxyphenyl)-6-bromo-2-methylthieno[3,2-d]pyrimidin-4-amine], the EC50 in assay [1] (setting [6]) worked out at 32 nM; in assay [1] (setting [5]) it was 33 nM; in assay [2] it was 468 nM; in assay [3], 82 nM.
As to `COc1cc(Nc2ncnc3cc(Br)sc23)cc(N(C)C)c1` [Example 64, 6-Bromo-N-(3-dimethylamino-5-methoxyphenyl)thieno[3,2-d]pyrimidin-4-amine], the EC50 turned out to be 131 nM in assay [1] (setting [5]), 565 nM in assay [2] and 1280 nM in assay [3].
On to `COc1cc(Nc2ncnc3ccsc23)cc([N+](=O)[O-])c1` [Example 59, N-(3-Methoxy-5-nitrophenyl)thieno[3,2-d]pyrimidin-4-amine], for which the EC50 in assay [1] (setting [5]) was greater than 10000 nM; in assay [2], 3260 nM; in assay [3], greater than 10000 nM.
On to `COc1cc(Nc2ncnc3sccc23)cc(OC)c1` [Example 45, N-(3,5-Dimethoxyphenyl)thieno[2,3-d]pyrimidin-4-amine], for which the EC50 is 87 nM in assay [1] (setting [5]), greater than 10000 nM in assay [2] and greater than 10000 nM in assay [3].
With `COc1cc(Nc2nc(C)nc3sccc23)cc(OC)c1` [Example 55, N-(3,5-Dimethoxyphenyl)-2-methylthieno[2,3-d]pyrimidin-4-amine], the EC50 in assay [1] (setting [6]) is 112 nM; in assay [1] (setting [5]), 99 nM; in assay [2] it was greater than 10000 nM; in assay [3], greater than 10000 nM.
Regarding `COc1cc(Nc2ncnc3ccsc23)cc(C(F)(F)F)c1` [Example 56, N-(5-Methoxy-3-trifluoromethylphenyl)thieno[3,2-d]pyrimidin-4-amine], the EC50 in assay [1] (setting [5]) turned out to be 1840 nM; in assay [2], 1030 nM; in assay [3] it was 2610 nM.
For the compound `COc1cc(N)cc(Nc2ncnc3ccsc23)c1` [Example 68, N-(3-Amino-5-methoxyphenyl)thieno[3,2-d]pyrimidin-4-amine], the EC50 was 2950 nM in assay [1] (setting [5]), 5080 nM in assay [2] and greater than 10000 nM in assay [3].
In the case of `COc1cc(Nc2ncnc3sc(C)cc23)cc(OC)c1` [Example 48, N-(3,5-Dimethoxyphenyl)-6-methylthieno[2,3-d]pyrimidin-4-amine], the EC50 in assay [1] (setting [5]) is 1990 nM; in assay [2] it was greater than 10000 nM; in assay [3], greater than 10000 nM.
Regarding `COc1cc(Nc2nc(C)nc3ccsc23)cc(-n2cnnn2)c1` [Example 65, N-(3-Methoxy-5-(1H-tetrazol-1-yl)phenyl)-2-methylthieno[3,2-d]pyrimidin-4-amine], the EC50 in assay [1] (setting [5]) was determined as 457 nM; in assay [2] it was 354 nM; in assay [3] it was 620 nM.
As for `COc1cc(O)cc(Nc2ncnc3ccsc23)c1` [Example 44, N-(3-Hydroxy-5-methoxyphenyl)thieno[3,2-d]pyrimidin-4-amine], the EC50 in assay [1] (setting [6]) turned out to be 1100 nM; in assay [4], 2680 nM.
With `COc1cc(Nc2ncnc3cc(I)sc23)cc(OC)c1` [Example 53, N-(3,5-Dimethoxyphenyl)-6-iodothieno[3,2-d]pyrimidin-4-amine], the EC50 in assay [1] (setting [5]) came to 723 nM; in assay [2], 868 nM; in assay [3] it was 2450 nM.
In the case of `COC(=O)c1cc(Nc2ncnc3ccsc23)cc(C(=O)OC)c1` [Example 58, Dimethyl 5-(thieno[3,2-d]pyrimidin-4-ylamino)benzene-1,3-dioate], the EC50 in assay [1] (setting [6]) is greater than 10000 nM; in assay [1] (setting [5]) it was 565 nM; in assay [2] it was 168 nM; in assay [3] it was 347 nM.
On to `COc1cc(Nc2ncnc3scc(C)c23)cc(OC)c1` [Example 50, N-(3,5-Dimethoxyphenyl)-5-methylthieno[2,3-d]pyrimidin-4-amine], for which the EC50 was 4360 nM in assay [1] (setting [5]), no less than 10000 nM in assay [2] and no less than 10000 nM in assay [3].
As to `COc1cc(Nc2nc(C)nc3scc(C)c23)cc(OC)c1` [Example 51, N-(3,5-Dimethoxyphenyl)-2,5-dimethylthieno[2,3-d]pyrimidin-4-amine], the EC50 in assay [1] (setting [5]) amounted to 2490 nM; in assay [2], 2640 nM; in assay [3], 3700 nM.
On the same counts, the results for `COc1cc(Nc2ncnc3cc(Br)sc23)cc(OC)c1` [Example 67, 6-Bromo-N-(3,5-dimethoxyphenyl)thieno[3,2-d]pyrimidin-4-amine] are 227 nM, 4950 nM and greater than 10000 nM.
For the compound `CS(=O)(=O)c1cc(Nc2ncnc3ccsc23)cc(S(C)(=O)=O)c1` [Example 60, N-(3,5-Bis(methylsulfonyl)phenyl)thieno[3,2-d]pyrimidin-4-amine], the 50% effective concentration (EC50) in assay [1] (setting [5]), in assay [2] and in assay [3] was greater than 10000 nM in each case.
As for `COc1cc(Nc2ncnc3sc(-c4ccccc4)c(C)c23)cc(OC)c1` [Example 49, N-(3,5-Dimethoxyphenyl)-5-methyl-6-phenylthieno[2,3-d]pyrimidin-4-amine], the EC50 in assay [1] (setting [5]), in assay [2] and in assay [3] was greater than 10000 nM in each case.
For `COc1cc(Nc2ncnc3sc(C)c(C)c23)cc(OC)c1` [Example 47, N-(3,5-Dimethoxyphenyl)-5,6-dimethylthieno[2,3-d]pyrimidin-4-amine], the EC50 in assay [1] (setting [5]), in assay [2] and in assay [3] was greater than 10000 nM in each case.
For the compound `COc1cc(Nc2nc(C)nc3ccsc23)cc(N(C)C)c1` [Example 63, N-(3-Dimethylamino-5-methoxyphenyl)-2-methylthieno[3,2-d]pyrimidin-4-amine], the EC50 in assay [1] (setting [5]) turned out to be 320 nM; in assay [2] it was 706 nM; in assay [3], 1260 nM.
Consider `COc1cc(Nc2ncnc3c(C)csc23)cc(OC)c1` [Example 46, N-(3,5-Dimethoxyphenyl)-7-methylthieno[3,2-d]pyrimidin-4-amine], for which the concentration giving a half-maximal response (EC50) in assay [1] (setting [5]) was 1520 nM; in assay [2], greater than 10000 nM; in assay [3], greater than 10000 nM.
Turning to `COc1cc(Nc2nc(C)nc3cc(Br)sc23)cc(N(C)C)c1` [Example 66, 6-Bromo-N-(3-dimethylamino-5-methoxyphenyl)-2-methylthieno[3,2-d]pyrimidin-4-amine], the results for the EC50 in assay [1] (setting [5]), in assay [2] and in assay [3] were 65 nM, 297 nM and 498 nM, respectively.
